According to patent US10160755B2 (Plexxikon Inc., priority 2015, dated 2018):

Tests used:
[1] = biological target: T1, FLT3-ITD (Homo sapiens, UniProt P36888); test: FLT3-ITD biochemical kinase assay (AlphaScreen)
T1 construct: FLT3-ITD; Invitrogen #PV6190
T1 sequence (P36888 1-993): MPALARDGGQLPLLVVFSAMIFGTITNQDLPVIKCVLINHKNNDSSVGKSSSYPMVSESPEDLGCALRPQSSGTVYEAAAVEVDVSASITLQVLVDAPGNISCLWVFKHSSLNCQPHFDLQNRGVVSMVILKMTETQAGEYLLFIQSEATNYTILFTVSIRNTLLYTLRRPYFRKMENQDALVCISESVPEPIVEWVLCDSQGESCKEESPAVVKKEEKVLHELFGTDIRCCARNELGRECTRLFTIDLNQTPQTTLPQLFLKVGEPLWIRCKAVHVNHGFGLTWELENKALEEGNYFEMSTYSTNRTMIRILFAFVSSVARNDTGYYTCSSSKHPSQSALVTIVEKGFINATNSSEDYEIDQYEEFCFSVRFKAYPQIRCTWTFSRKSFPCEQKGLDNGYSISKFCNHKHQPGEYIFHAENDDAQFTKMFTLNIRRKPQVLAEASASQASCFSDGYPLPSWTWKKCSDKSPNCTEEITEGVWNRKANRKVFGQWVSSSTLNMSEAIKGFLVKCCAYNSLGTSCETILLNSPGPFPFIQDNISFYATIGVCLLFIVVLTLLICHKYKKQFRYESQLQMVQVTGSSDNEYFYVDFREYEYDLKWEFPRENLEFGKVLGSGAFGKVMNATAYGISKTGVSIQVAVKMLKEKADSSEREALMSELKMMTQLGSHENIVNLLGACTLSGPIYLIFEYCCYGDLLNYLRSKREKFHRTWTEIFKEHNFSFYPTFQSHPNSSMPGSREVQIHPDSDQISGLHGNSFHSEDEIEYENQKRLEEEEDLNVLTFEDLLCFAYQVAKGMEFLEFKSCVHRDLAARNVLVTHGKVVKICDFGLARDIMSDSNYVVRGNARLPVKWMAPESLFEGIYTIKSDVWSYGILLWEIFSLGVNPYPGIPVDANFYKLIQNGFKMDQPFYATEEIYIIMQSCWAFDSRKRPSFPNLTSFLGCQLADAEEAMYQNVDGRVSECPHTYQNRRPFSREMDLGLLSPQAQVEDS
Procedure, shortened: (§1)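 IC50 values reflect loss of AlphaScreen proximity signal (excitation 680 nm, emission 580 nm) from tyrosine phosphorylation of a biotinylated poly(Glu4-Tyr) substrate at 30 nM. ATP was 10 μM for the D835Y mutant and 100 μM for ITD. Detection used PY20 acceptor beads.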

[2] = biological target: T2, FLT3-D835Y (Homo sapiens, UniProt P36888, D835Y); test: FLT3-D835Y biochemical kinase assay (AlphaScreen)
T2 construct: purchased Invitrogen PV3967
T2 sequence (P36888 27-993 D835Y): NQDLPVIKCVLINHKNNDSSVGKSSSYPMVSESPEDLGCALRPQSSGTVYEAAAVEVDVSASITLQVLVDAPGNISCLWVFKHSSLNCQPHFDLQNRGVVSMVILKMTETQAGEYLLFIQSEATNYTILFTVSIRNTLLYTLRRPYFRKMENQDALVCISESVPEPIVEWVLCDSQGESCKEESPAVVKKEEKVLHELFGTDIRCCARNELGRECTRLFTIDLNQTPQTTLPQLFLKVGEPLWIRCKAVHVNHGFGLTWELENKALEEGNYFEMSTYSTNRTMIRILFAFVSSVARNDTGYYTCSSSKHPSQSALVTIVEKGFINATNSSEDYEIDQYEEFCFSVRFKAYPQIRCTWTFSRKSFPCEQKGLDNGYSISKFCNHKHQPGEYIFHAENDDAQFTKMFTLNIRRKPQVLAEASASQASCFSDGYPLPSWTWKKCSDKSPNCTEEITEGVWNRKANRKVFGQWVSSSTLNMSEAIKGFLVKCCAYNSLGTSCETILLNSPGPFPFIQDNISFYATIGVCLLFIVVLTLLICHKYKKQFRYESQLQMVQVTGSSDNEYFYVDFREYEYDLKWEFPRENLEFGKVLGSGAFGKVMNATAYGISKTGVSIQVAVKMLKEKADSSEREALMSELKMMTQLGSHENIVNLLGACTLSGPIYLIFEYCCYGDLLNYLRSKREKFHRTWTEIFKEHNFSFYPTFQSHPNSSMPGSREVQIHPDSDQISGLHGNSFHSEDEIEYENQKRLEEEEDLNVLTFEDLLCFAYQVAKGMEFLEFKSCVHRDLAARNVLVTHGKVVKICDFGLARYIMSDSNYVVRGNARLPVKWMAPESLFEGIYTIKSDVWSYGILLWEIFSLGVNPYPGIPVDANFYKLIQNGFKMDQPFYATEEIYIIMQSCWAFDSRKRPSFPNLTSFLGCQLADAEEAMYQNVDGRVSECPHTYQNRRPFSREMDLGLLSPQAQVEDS
Procedure, shortened: as §1

IC50 [1] | IC50 [2] | Structure (SMILES)
0.0001 to 1 µM | 0.0001 to 1 µM | CN1CCN(c2cccc(-c3cnc4[nH]cc(-c5ccc6ncn(C(C)(C)C)c6c5)c4n3)c2)CC1 [P-331, 7-(3-tert-butylbenzimidazol-5-yl)-2-[3-(4-methylpiperazin-1-yl)phenyl]-5H-pyrrolo[2,3-b]pyrazine]
0.0001 to 1 µM | 0.0001 to 1 µM | Cc1ncc(-c2cnc3[nH]cc(-c4ccc5ncn(C(C)(C)C)c5c4)c3n2)cn1 [P-289, 7-(3-tert-butylbenzimidazol-5-yl)-2-(2-methylpyrimidin-5-yl)-5H-pyrrolo[2,3-b]pyrazine]
0.0001 to 1 µM | 0.0001 to 1 µM | c1cc(N2CCCCC2)ccc1-c1cnc2[nH]cc(-c3ccc4ncn(C5CCCNC5)c4c3)c2n1 (stereo not shown) [P-346, 7-[3-(3-piperidyl)benzimidazol-5-yl]-2-[4-(1-piperidyl)phenyl]-5H-pyrrolo[2,3-b]pyrazine]
0.0001 to 1 µM | 0.0001 to 1 µM | COc1cc(-c2cnc3[nH]cc(-c4ccc5ncn(C6CCCN(S(C)(=O)=O)C6)c5c4)c3n2)ccn1 (stereo not shown) [P-281, 2-(2-methoxy-4-pyridyl)-7-[3-(1-methylsulfonyl-3-piperidyl)benzimidazol-5-yl]-5H-pyrrolo[2,3-b]pyrazine]
0.0001 to 1 µM | 0.0001 to 1 µM | CC(C)(C)n1cnc2ccc(-c3c[nH]c4ncc(-c5ccc(N6CCCS6(=O)=O)cc5)cc34)cc21 [P-320, 2-[4-[3-(3-tert-butylbenzimidazol-5-yl)-1H-pyrrolo[2,3-b]pyridin-5-yl]phenyl]-1,2-thiazolidine 1,1-dioxide]
0.0001 to 1 µM | 0.0001 to 1 µM | CC(C)(C)n1cnc2ccc(-c3c[nH]c4ncc(-c5ccc(N6CCCCC6)cc5)nc34)cc21 [P-345, 7-(3-tert-butylbenzimidazol-5-yl)-2-[4-(1-piperidyl)phenyl]-5H-pyrrolo[2,3-b]pyrazine]
0.0001 to 1 µM | 0.0001 to 1 µM | COc1cnc2[nH]cc(-c3ccc4ncn(C5CCCNC5)c4c3)c2c1 (stereo not shown) [P-079, 5-methoxy-3-[3-(3-piperidyl)benzimidazol-5-yl]-1H-pyrrolo[2,3-b]pyridine]
0.0001 to 1 µM | 0.0001 to 1 µM | CCN1CCN(c2ccc(-c3cnc4[nH]cc(-c5ccc6ncn(C(C)(C)C)c6c5)c4n3)cc2)CC1 [P-358, 7-(3-tert-butylbenzimidazol-5-yl)-2-[4-(4-ethylpiperazin-1-yl)phenyl]-5H-pyrrolo[2,3-b]pyrazine]
0.0001 to 1 µM | 0.0001 to 1 µM | FC(F)(F)Cn1cc(-c2cnc3[nH]cc(-c4ccc5ncn(C6CCCNC6)c5c4)c3c2)cn1 (stereo not shown) [P-275, 1-(3-piperidyl)-6-[5-[1-(2,2,2-trifluoroethyl)pyrazol-4-yl]-1H-pyrrolo[2,3-b]pyridin-3-yl]benzimidazole]
0.0001 to 1 µM | 0.0001 to 1 µM | COc1cc(C#Cc2cnc3[nH]cc(-c4ccc5ncn(C6CCCNC6)c5c4)c3n2)ccn1 (stereo not shown) [P-280, 2-((2-methoxypyridin-4-yl)ethynyl)-7-(1-(piperidin-3-yl)-1H-benzo[d]imidazol-6-yl)-5H-pyrrolo[2,3-b]pyrazine]
0.0001 to 1 µM | 0.0001 to 1 µM | COc1ncc(-c2cnc3[nH]cc(-c4ccc5ncn(C6CCCNC6)c5c4)c3c2)cn1 (stereo not shown) [P-276, 5-(2-methoxypyrimidin-5-yl)-3-[3-(3-piperidyl)benzimidazol-5-yl]-1H-pyrrolo[2,3-b]pyridine]
0.0001 to 1 µM | 0.0001 to 1 µM | CCN1CCN(c2cccc(-c3cnc4[nH]cc(-c5ccc6ncn(C7CCCNC7)c6c5)c4n3)c2)CC1 (stereo not shown) [P-329, 2-[3-(4-ethylpiperazin-1-yl)phenyl]-7-[3-(3-piperidyl)benzimidazol-5-yl]-5H-pyrrolo[2,3-b]pyrazine]
0.0001 to 1 µM | 0.0001 to 1 µM | CC(C)(C)n1cnc2ccc(-c3c[nH]c4ncc(-c5ccnc(N6CCCS6(=O)=O)c5)nc34)cc21 [P-294, 2-[4-[7-(3-tert-butylbenzimidazol-5-yl)-5H-pyrrolo[2,3-b]pyrazin-2-yl]-2-pyridyl]-1,2-thiazolidine 1,1-dioxide]
0.0001 to 1 µM | 0.0001 to 1 µM | CC(C)(C)n1cnc2ccc(-c3c[nH]c4ncc(-c5ccnc(N6CCCCS6(=O)=O)c5)nc34)cc21 [P-309, 2-[4-[7-(3-tert-butylbenzimidazol-5-yl)-5H-pyrrolo[2,3-b]pyrazin-2-yl]-2-pyridyl]thiazinane 1,1-dioxide]
0.0001 to 1 µM | 0.0001 to 1 µM | Cc1cc(C#Cc2cnc3[nH]cc(-c4ccc5ncn(C6CCCNC6)c5c4)c3n2)cc(C)n1 (stereo not shown) [P-283, 2-[2-(2,6-dimethyl-4-pyridyl)ethynyl]-7-[3-(3-piperidyl)benzimidazol-5-yl]-5H-pyrrolo[2,3-b]pyrazine]
0.0001 to 1 µM | 0.0001 to 1 µM | CC(C)(C)n1cnc2ccc(-c3c[nH]c4ncc(-c5ccc(N6CCC(F)(F)CC6)nc5)nc34)cc21 [P-356, 7-(3-tert-butylbenzimidazol-5-yl)-2-[6-(4,4-difluoro-1-piperidyl)-3-pyridyl]-5H-pyrrolo[2,3-b]pyrazine]
0.0001 to 1 µM | 0.0001 to 1 µM | CC(C)(C)n1cnc2ccc(-c3c[nH]c4ncc(-c5cccc(N6CCCS6(=O)=O)c5)cc34)cc21 [P-278, 2-[3-[3-(3-tert-butylbenzimidazol-5-yl)-1H-pyrrolo[2,3-b]pyridin-5-yl]phenyl]-1,2-thiazolidine 1,1-dioxide]
0.0001 to 1 µM | 0.0001 to 1 µM | Cc1ncc(C#Cc2cnc3[nH]cc(-c4ccc5ncn(C6CCCNC6)c5c4)c3n2)cn1 (stereo not shown) [P-285, 2-[2-(2-methylpyrimidin-5-yl)ethynyl]-7-[3-(3-piperidyl)benzimidazol-5-yl]-5H-pyrrolo[2,3-b]pyrazine]
0.0001 to 1 µM | 0.0001 to 1 µM | O=S1(=O)CCCN1c1cc(-c2cnc3[nH]cc(-c4ccc5ncn(C6CCCNC6)c5c4)c3n2)ccn1 (stereo not shown) [P-295, 2-[4-[7-[3-(3-piperidyl)benzimidazol-5-yl]-5H-pyrrolo[2,3-b]pyrazin-2-yl]-2-pyridyl]-1,2-thiazolidine 1,1-dioxide]
0.0001 to 1 µM | 0.0001 to 1 µM | Cc1ccc(-c2cnc3[nH]cc(-c4ccc5ncn(C(C)(C)C)c5c4)c3n2)cn1 [P-388, 7-(3-tert-butylbenzimidazol-5-yl)-2-(6-methyl-3-pyridyl)-5H-pyrrolo[2,3-b]pyrazine]
0.0001 to 1 µM | 0.0001 to 1 µM | CC(C)(C)n1cnc2ccc(-c3n[nH]c4ncc(-c5cccc(N6CCCS6(=O)=O)c5)cc34)cc21 [P-296, 2-[3-[3-(3-tert-butylbenzimidazol-5-yl)-1H-pyrazolo[3,4-b]pyridin-5-yl]phenyl]-1,2-thiazolidine 1,1-dioxide]
0.0001 to 1 µM | 0.0001 to 1 µM | CCN1CCN(c2ccc(-c3cnc4[nH]cc(-c5ccc6ncn(C(C)(C)C)c6c5)c4n3)cn2)CC1 [P-365, 7-(3-tert-butylbenzimidazol-5-yl)-2-[6-(4-ethylpiperazin-1-yl)-3-pyridyl]-5H-pyrrolo[2,3-b]pyrazine]
0.0001 to 1 µM | 0.0001 to 1 µM | Cc1ncc(C#Cc2cnc3[nH]cc(-c4ccc5ncn(C(C)(C)C)c5c4)c3c2)cn1 [P-383, 1-tert-butyl-6-[5-[2-(2-methylpyrimidin-5-yl)ethynyl]-1H-pyrrolo[2,3-b]pyridin-3-yl]benzimidazole]
